3 molecules from ChEMBL document CHEMBL4265884, “Discovery and biological activity of computer-assisted drug designed Akt pathway inhibitors” (Bioorg Med Chem Lett, 2018) can be followed below.

Assay [1] has as its system NCI-H2009. As to the kind of experiment: Growth inhibition of human NCI-H2009 cells assessed as reduction in cell number at 1.25 uM after 2 to 4 days by flow cytometric analysis. The format is functional, cell-based.
Assay [2] deals with NCI-H2009. As to the kind of experiment: Growth inhibition of human NCI-H2009 cells assessed as reduction in cell number after 2 days by flow cytometric analysis. The format is functional, cell-based.
In assay [3] the target is RAC-alpha serine/threonine-protein kinase (Homo sapiens) (UniProt P31749). Put plainly: Inhibition of AKT phosphorylation at Ser473 in […] WBras1 cells at 1.25 uM after 4 hrs by Western blot analysis. Type of assay: cell-based.
Assay [4] has the same target. As to the kind of experiment: Inhibition of AKT phosphorylation at Ser473 in human NCI-H2009 cells at 2.5 uM after 1 to 4 hrs by Western blot analysis. Type of assay: cell-based. A general note: A western blot detects proteins with antibodies after separation by electrophoresis.
The target is the same in assay [5]. Put plainly: Inhibition of AKT phosphorylation at Ser473 in human NCI-H2009 cells at 1.25 uM after 24 to 48 hrs by Western blot analysis. The format is cell-based.
Assay [6] has the same target. As to the kind of experiment: Inhibition of AKT phosphorylation at Ser473 in […] WBras1 cells at 1.25 uM after 24 hrs by Western blot analysis. The format is cell-based.
For assay [7] the target is unchanged. Put plainly: Inhibition of AKT phosphorylation at Ser473 in human NCI-H2009 cells up to 10 uM after 4 hrs by Western blot analysis. The format is cell-based.
The target is the same in assay [8]. As to the kind of experiment: Inhibition of AKT phosphorylation at Ser473 in […] WBras1 cells at 2.5 uM after 4 hrs by Western blot analysis. The format is cell-based.
The test system of assay [9] is NCI-H2009. As to the kind of experiment: Growth inhibition of human NCI-H2009 cells assessed as reduction in cell number at 2.5 uM after 2 to 4 days by flow cytometric analysis. Type of assay: functional, cell-based. (Flow cytometry measures light scatter and fluorescence of single cells or particles in a stream.)
In assay [10] the target is RAC-alpha serine/threonine-protein kinase (Homo sapiens) (UniProt P31749). As to the kind of experiment: Inhibition of AKT phosphorylation at Ser473 in human NCI-H2009 cells at 2.5 uM after 24 to 48 hrs by Western blot analysis. The format is cell-based.
Assay [11] shares this target. Put plainly: Inhibition of AKT phosphorylation at Ser473 in […] WBras1 cells at 2.5 uM after 24 hrs by Western blot analysis. The format is cell-based.
Assay [12] has the same target. Put plainly: Inhibition of AKT phosphorylation at Ser473 in […] WBras1 cells at 25 uM after 4 hrs by Western blot analysis. The format is cell-based.
Assay [13] shares this target. Put plainly: Inhibition of AKT phosphorylation at Ser473 in […] WBras1 cells at 25 uM after 24 hrs by Western blot analysis. Type of assay: cell-based.
Assay [14] has the same target. Put plainly: Inhibition of AKT phosphorylation at Ser473 in human NCI-H2009 cells at 25 uM after 24 hrs by Western blot analysis. Type of assay: cell-based.

Activity calls are given as the source filed them. The calls are words filed in the database; no cut-off is given here.

The IC50 is the concentration that gives 50% inhibition.

Chain of RAC-alpha serine/threonine-protein kinase (Homo sapiens) (P31749 whole entry): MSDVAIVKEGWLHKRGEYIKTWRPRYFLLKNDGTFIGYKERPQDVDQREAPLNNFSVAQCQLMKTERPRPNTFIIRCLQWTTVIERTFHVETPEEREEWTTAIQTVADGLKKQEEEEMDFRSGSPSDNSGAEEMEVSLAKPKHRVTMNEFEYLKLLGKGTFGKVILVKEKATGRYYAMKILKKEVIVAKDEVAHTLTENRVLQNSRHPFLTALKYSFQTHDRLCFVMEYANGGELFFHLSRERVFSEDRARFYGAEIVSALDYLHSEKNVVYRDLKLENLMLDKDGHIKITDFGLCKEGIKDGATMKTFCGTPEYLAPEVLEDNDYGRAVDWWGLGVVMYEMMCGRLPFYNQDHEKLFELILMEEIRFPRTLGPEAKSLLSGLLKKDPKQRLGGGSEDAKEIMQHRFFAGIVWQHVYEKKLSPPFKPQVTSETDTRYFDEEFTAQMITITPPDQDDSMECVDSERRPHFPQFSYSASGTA

For the molecule `CCCCCCCCCCCCSC1=NCCCN1`, in the assay with NCI-H2009 [1], the “growth inhibition (GI)” value was “Active”. Also, the “growth inhibition (GI)” value with NCI-H2009 [2] was “Dose-dependent effect”. Further, in the assay with NCI-H2009 [2] (NCI-H2009, 48 h), the IC50 worked out at 200 nM. In addition, the inhibition entry in assay [3], in [4], in [5] and in assay [6] was “Active” each time.
`CCCCCCCCCCCCSC(=NC)NC`: the inhibition result in assay [7] and in assay [10] was “inactive” each time. The inhibition result in [8] and in assay [11] was “Active” in each case. In addition, the “growth inhibition (GI)” value with NCI-H2009 [9] is “Active”.
As for `C=CCCCCCCCCC1OCCN1CC` (stereo unspecified), the inhibition entry in [12] and in assay [13] was “Active” throughout. For the same molecule, the “growth inhibition (GI)” value with NCI-H2009 [9] was “inactive”. For the same molecule, the inhibition entry in assay [14] is “inactive”.
